Results taken from US8288371B2, “Ortho pyrrolidine, benzyl-substituted heterocycle CCR1 antagonists for autoimmune diseases and inflammation” (Pharmacopeia, LLC, priority 2007, dated 2012).

Target: T1, human CCR1 (Homo sapiens, UniProt P32246)
T1 sequence (P32246 1-355): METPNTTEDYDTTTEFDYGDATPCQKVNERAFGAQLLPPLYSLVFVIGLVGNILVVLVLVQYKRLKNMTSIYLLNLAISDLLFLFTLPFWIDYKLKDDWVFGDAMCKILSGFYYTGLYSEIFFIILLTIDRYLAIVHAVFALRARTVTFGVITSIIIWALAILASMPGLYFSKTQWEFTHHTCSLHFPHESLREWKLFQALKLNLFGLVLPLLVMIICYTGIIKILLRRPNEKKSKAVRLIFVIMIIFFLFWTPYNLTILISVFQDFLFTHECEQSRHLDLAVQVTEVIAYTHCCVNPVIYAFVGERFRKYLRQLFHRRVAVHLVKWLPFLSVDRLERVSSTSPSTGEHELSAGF
Assay: CCR1 binding protocol (SPA, [125I]-MIP-1α displacement)
Details: cell membrane expressing human CCR1, 0.1 nM [125I]-MIP-1α, 4 hours at ambient temperature; read-out: Relative potency (IC50)
Method: The following protocol was used to test compounds for CCR1 binding. A mixture, including scintillation proximity assay (SPA) beads and cell membrane expressing human CCR1, was prepared in assay buffer (130 mM NaCl+5 mM KCl+1 mM MnCl+50 mM Tris HCl at pH 7.4+0.1% bovine serum albumin (BSA)) at the ratio of 50 μg/ml membrane to 10 mg/ml SPA beads. 10 μl of the mixture was transferred to each well of a 384-well assay plate yielding a final concentration for the membrane and SPA beads of 0.5 μg/well and 100 μg/well, respectively
To generate different concentrations of the test compound, compound stocks were prepared using 10 step ½ log dilutions with a high concentration of 10 mM in DMSO and the lowest concentration being DMSO only without compound. An intermediate 40× dilution was then prepared in the assay buffer. The compound was then transferred at 10 μl/well to the assay plate. 0.5 nM [^125 I]-labeled macrophage inflammatory protein-1α (MIP-1α, an endogenous CCR1 ligand) in the assay buffer was transferred to the assay plate at 5 μl/well, for a final ligand concentration of 0.1 nM. The assay plate was then centrifuged at 2500 rpm for 2 minutes and incubated for 4 hours at ambient temperature, at which time the raw data was recorded using microbeta. The IC50 was then calculated using Graphpad Prism.

Row | SMILES | IC50
1 | CC[C@H](NC(=O)N1CCC[C@@H]1c1nnc(C)n1Cc1ccc(Cl)cc1)c1nc2ccccc2o1 [Compound 516] | 500 to 5000 nM
2 | Cc1cc(C(F)(F)F)cc(C)c1NC(=O)N1CCC[C@@H]1c1ncncc1Cc1ccc(Cl)cc1 [Compound 12] | < 50 nM
3 | Cc1ccc(NC(=O)N2CCC[C@@H]2c2nnc(C)n2Cc2ccc(Cl)cc2)c(C(N)=O)c1 [Compound 244] | 50 to 500 nM
4 | Cc1nnc([C@H]2CCCN2C(=O)Nc2ccc(Cl)cc2Cl)n1Cc1ccc(Cl)cc1 [Compound 421] | 50 to 500 nM
5 | CC[C@H](NC(=O)N1CCC[C@@H]1c1ncnn1Cc1ccc(Cl)cc1)c1cc2ccccc2o1 [Compound 80] | < 50 nM
6 | Cc1nnc([C@H]2CCCN2C(=O)NC2(c3ccccc3)CC2)n1Cc1ccc(F)cc1 [Compound 399] | 50 to 500 nM
7 | Cc1nnc([C@H]2CCCN2C(=O)NC2(c3ccccc3)CC2)n1[C@H](C)c1ccc(Cl)cc1 [Compound 357] | 50 to 500 nM
8 | CC[C@H](NC(=O)N1CCC[C@@H]1c1nnc(C)n1Cc1ccc(Cl)cc1)c1ccc(C)nc1C [Compound 625] | < 50 nM
9 | Cc1onc(NC(=O)N2CCC[C@@H]2c2nnc(C)n2Cc2ccc(Cl)cc2)c1F [Compound 590] | 50 to 500 nM
10 | Cc1nnc([C@H]2CCCN2C(=O)NC(C)(C)c2ccccc2)n1Cc1ccc(Cl)cc1 [Compound 179] | < 50 nM
11 | Cc1nnc([C@H]2CCCN2C(=O)Nc2ccc3c(c2)S(=O)(=O)C=C3)n1Cc1ccc(Cl)cc1 [Compound 430] | 50 to 500 nM
12 | Cc1noc(-c2ccccc2)c1NC(=O)N1CCC[C@@H]1c1nccn1Cc1ccc(Cl)cc1 [Compound 34] | < 50 nM
13 | Cc1ccc2c(c1)CCCC2NC(=O)N1CCC[C@@H]1c1nnc(C)n1Cc1ccc(Cl)cc1 (stereo partly shown) [Compound 269] | 50 to 500 nM
14 | O=C(NC1CCS(=O)(=O)c2ccccc21)N1CCC[C@@H]1c1ncnn1Cc1ccc(Cl)cc1 (stereo partly shown) [Compound 78] | 500 to 5000 nM
15 | Cc1cc(C)c(S(=O)(=O)O)cc1NC(=O)N1CCC[C@@H]1c1nnc(C)n1Cc1ccc(Cl)cc1 [Compound 455] | 50 to 500 nM
16 | CNC(=O)c1ccc(NC(=O)N2CCC[C@@H]2c2nnc(C)n2Cc2ccc(Cl)cc2)c(C)c1 [Compound 234] | 50 to 500 nM
17 | Cc1nc(C(F)(F)F)ccc1NC(=O)N1CC(F)C[C@@H]1c1nnc(C)n1Cc1ccc(Cl)cc1 (stereo partly shown) [Compound 580] | < 50 nM
18 | NC(=O)c1nnc([C@H]2CCCN2C(=O)N[C@H]2CCOc3cc(C(F)(F)F)ccc32)n1Cc1ccc(Cl)cc1 [Compound 489] | 500 to 5000 nM
19 | Cc1noc(C)c1NC(=O)N1CCC[C@@H]1c1noc(C)c1Cc1ccc(Cl)cc1 [Compound 7] | 50 to 500 nM
20 | Cc1nnc([C@H]2CCCN2C(=O)NCc2ccccc2)n1Cc1ccc(Cl)cc1 [Compound 224] | 50 to 500 nM
21 | Cc1nc(C(F)(F)F)ccc1NC(=O)N1CCC[C@@H]1c1ncnn1Cc1ccc(Cl)cc1 [Compound 548] | 50 to 500 nM
22 | Cc1nc(C(F)(F)F)ccc1NC(=O)N1CCC[C@@H]1c1ncc(C)n1Cc1ccc(Cl)cc1 [Compound 566] | 50 to 500 nM

Row | SMILES | IC50
23 | CC[C@H](NC(=O)N1CCC[C@@H]1c1nnc(C)n1Cc1ccc(F)cc1)c1ccc(C(F)(F)F)nc1 [Compound 560] | < 50 nM
24 | Cc1noc(C)c1NC(=O)N1CCC[C@@H]1c1nnc(C)n1[C@@H](C)c1ccc(Cl)cc1 [Compound 400] | 500 to 5000 nM
25 | Cc1nnc([C@H]2CCCN2C(=O)NC2(c3ccccc3)CC2)n1Cc1ccc(Cl)nc1 [Compound 383] | 50 to 500 nM
26 | O=C(NCc1ccc(Cl)cc1Cl)N1CCC[C@@H]1c1nccn1Cc1ccc(Cl)cc1 [Compound 43] | 50 to 500 nM
27 | Cc1nc(C(F)(F)F)ccc1NC(=O)N1CCC[C@@H]1c1nnc(C)n1Cc1ccc(Br)cc1 [Compound 535] | < 50 nM
28 | Cc1nnc([C@H]2CC(F)CN2C(=O)NC(c2ccccc2)c2ccccc2)n1Cc1ccc(Cl)cc1 (stereo partly shown) [Compound 569] | 50 to 500 nM
29 | Cc1nnc([C@H]2CCCN2C(=O)Cc2ccc(Cl)nc2)n1Cc1ccc(Cl)cc1 [Compound 518] | < 50 nM
30 | CC[C@H](NC(=O)N1CCC[C@@H]1c1nnc(C)n1Cc1ccc(Br)cc1)c1ccc(C(F)(F)F)cc1 [Compound 578] | < 50 nM
31 | Cc1nc(C(F)(F)F)ccc1N/C(=N\C#N)N1CCC[C@@H]1c1nnc(C)n1Cc1ccc(Cl)cc1 [Compound 539] | 50 to 500 nM
32 | CC[C@H](N/C(=N/C#N)N1CCC[C@@H]1c1nnc(C)n1Cc1ccc(Cl)cc1)c1cc2ccccc2o1 [Compound 196] | < 50 nM
33 | Cc1cc(Cl)cc(C)c1NC(=O)N1CCC[C@@H]1c1nncn1Cc1ccc(Cl)cc1 [Compound 106] | < 50 nM
34 | Cc1nnc([C@H]2CCCN2C(=O)Nc2ccc(C(C)(C)C)cc2)n1Cc1ccc(Cl)cc1 [Compound 133] | < 50 nM
35 | CC[C@H](C)NC(=O)N1CCC[C@@H]1c1nnc(C)n1Cc1ccc(Cl)cc1 [Compound 407] | 50 to 500 nM
36 | Cc1nn(C)c(C)c1NC(=O)N1CCC[C@@H]1c1nnc(C)n1Cc1ccc(Cl)cc1 [Compound 320] | < 50 nM
37 | Cc1nnc([C@H]2CCCN2C(=O)N[C@H]2CCCOc3ccc(Cl)cc32)n1Cc1ccc(Cl)cc1 [Compound 156] | 50 to 500 nM
38 | Cc1ccc(C(N)=O)cc1NC(=O)N1CCC[C@@H]1c1nnc(C)n1Cc1ccc(Cl)cc1 [Compound 229] | 50 to 500 nM
39 | Cc1nnc([C@H]2CCCN2C(=O)Nc2cc(C(=O)N(C)C)ccc2C(F)(F)F)n1Cc1ccc(Cl)cc1 [Compound 379] | 50 to 500 nM
40 | Cc1ccc(NC(=O)N2CCC[C@@H]2c2nnc(C)n2Cc2ccc(Cl)cc2)c(Cl)n1 [Compound 394] | 50 to 500 nM
41 | Cc1nnc([C@H]2CCCN2C(=O)NC2CCOCC2)n1Cc1ccc(Cl)cc1 [Compound 333] | 500 to 5000 nM
42 | Cc1cc(NC(=O)N2CCC[C@@H]2c2nnc(C)n2Cc2ccc(Cl)cc2)c(F)cc1Cl [Compound 426] | < 50 nM
43 | Cc1nnc([C@H]2CCCN2C(=O)NC2CCOc3cc(C#N)ccc32)n1Cc1ccc(Cl)cc1 (stereo partly shown) [Compound 134] | < 50 nM
44 | Cc1nnc([C@H]2CCCN2C(=O)NCc2ccc(C(F)(F)F)cc2)n1Cc1ccc(Cl)cc1 [Compound 130] | < 50 nM

Row | SMILES | IC50
45 | Cc1nnc([C@H]2CCCN2C(=O)Nc2ccc3c(c2)OCC(=O)N3C)n1Cc1ccc(Cl)cc1 [Compound 339] | 500 to 5000 nM
46 | Cc1nnc([C@H]2CCCN2C(=O)NC(c2ccccc2)c2ccccc2)n1Cc1ccc(Cl)cc1 [Compound 128] | < 50 nM
47 | Cc1nnc([C@H]2CCCN2C(=O)N[C@@H]2CCS(=O)(=O)c3ccc(Cl)cc32)n1Cc1ccc(Cl)cc1 [Compound 368] | < 50 nM
48 | Cc1nnc([C@H]2CCCN2C(=O)NC2(c3ccccc3)CC2)n1C1(c2ccc(Cl)cc2)CC1 [Compound 329] | 50 to 500 nM
49 | Cc1nnc([C@H]2CCCN2C(=O)NC(C)c2cccnc2)n1Cc1ccc(Cl)cc1 (stereo partly shown) [Compound 139] | 50 to 500 nM
50 | Cc1cc(Cl)cc(C)c1NC(=O)N1CCC[C@@H]1c1ncnn1Cc1ccc(Cl)cc1 [Compound 66] | 50 to 500 nM
51 | Cc1cc(Cl)cc(C)c1N/C(=N/C#N)N1CCC[C@@H]1c1nnc(C)n1Cc1ccc(Cl)cc1 [Compound 198] | < 50 nM
52 | Cc1noc(-c2ccccc2)c1NC(=O)N1CCC[C@@H]1c1nnc(Cl)n1Cc1ccc(Cl)cc1 [Compound 187] | < 50 nM
53 | Cc1nnc([C@H]2CCCN2C(=O)Nc2ccc(Cl)cc2F)n1[C@@H](C)c1ccc(Cl)cc1 [Compound 342] | 500 to 5000 nM
54 | Cc1nc(C(F)(F)F)ccc1CC(=O)N1CCC[C@@H]1c1ncnn1Cc1ccc(Cl)cc1 [Compound 617] | 50 to 500 nM
55 | Cc1nnc([C@H]2CCCN2C(=O)Nc2ccc(OC3CCOCC3)nc2)n1Cc1ccc(Cl)cc1 [Compound 551] | 500 to 5000 nM
56 | Cc1nnc([C@H]2CCCN2/C(=C/[N+](=O)[O-])Nc2ccc(Cl)cc2F)n1Cc1ccc(Cl)cc1 [Compound 613] | 50 to 500 nM
57 | CCc1noc(CC)c1NC(=O)N1CCC[C@@H]1c1nnc(C)n1Cc1ccc(Cl)cc1 [Compound 287] | < 50 nM
58 | Cc1nnc([C@H]2CCCN2C(=O)Nc2ccc(C(F)(F)F)cn2)n1Cc1ccc(Cl)cc1 [Compound 277] | 50 to 500 nM
59 | Cc1onc(-c2ccccc2)c1NC(=O)N1C[C@@H](O)C[C@@H]1c1nnc(C)n1Cc1ccc(Cl)cc1 [Compound 433] | < 50 nM
60 | O=C(NCc1ccc(Cl)cc1Cl)N1C[C@H](O)C[C@@H]1c1nncn1Cc1ccc(Cl)cc1 [Compound 475] | 50 to 500 nM
61 | O=C(N[C@H]1CCCc2cc(C(F)(F)F)ccc21)N1CCC[C@@H]1c1ncnn1Cc1ccc(Cl)cc1 [Compound 82] | < 50 nM
62 | CC[C@H](NC(=O)N1CCC[C@@H]1c1nnc(C)n1Cc1ccc(F)cc1)c1ccc(C(F)(F)F)cc1 [Compound 577] | < 50 nM
63 | O=C(N[C@H]1CCc2ccccc2C1)N1CCC[C@@H]1c1nncn1Cc1ccc(Cl)cc1 [Compound 103] | < 50 nM
64 | Cc1nc(-c2ccccc2)sc1NC(=O)N1CCC[C@@H]1c1nccn1Cc1ccc(Cl)cc1 [Compound 36] | < 50 nM
